Source: patent US20060069132A1, “Azolecarboxamide herbicides” (priority 2004, published 2006)

Columns and labels:
barnyardgrass [1] = experiment: Test B pre-/postemergence herbicide test; format: in vivo, Echinochloa crus-galli; conditions: for Barnyardgrass plant response rating (0 to 100 scale) / Plant response rating, Barnyardgrass: 0 = no effect, 100 = complete control, preemergence; for Plant response rating, Barnyardgrass / Barnyardgrass plant response rating: visual rating; for Barnyardgrass plant response rating: postemergence, scale 0 (no effect) to 100 (complete control)
Outline: (§1)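 Test chemicals in a non-phytotoxic solvent mixture with surfactant were applied preemergence to seeded species and postemergence to plants 2-18 cm tall (1- to 4-leaf stage); rice and barnyardgrass were also tested in a flooded paddy at the 2-leaf stage. Visual rating versus controls after 13-15 days in greenhouse, scale 0 (no effect) to 100 (complete control).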

Surinam grass = experiment: Test B pre-/postemergence herbicide test; format: in vivo, Urochloa decumbens; conditions: for Surinam Grass plant response rating (0 to 100 scale) / Plant response rating, Surinam Grass: 0 = no effect, 100 = complete control, preemergence; for Plant response rating, Surinam Grass / Surinam Grass plant response rating: visual rating; for Surinam Grass plant response rating: postemergence, scale 0 (no effect) to 100 (complete control)
Outline: as §1

cocklebur = experiment: Test B pre-/postemergence herbicide test; format: in vivo, Xanthium strumarium; conditions: for Cocklebur plant response rating (0 to 100 scale) / Plant response rating, Cocklebur: 0 = no effect, 100 = complete control, preemergence; for Plant response rating, Cocklebur / Cocklebur plant response rating: visual rating; for Cocklebur plant response rating: postemergence, scale 0 (no effect) to 100 (complete control)
Outline: as §1

corn = experiment: Test B pre-/postemergence herbicide test; format: in vivo, Zea mays; conditions: for Corn plant response rating (0 to 100 scale) / Plant response rating, Corn: 0 = no effect, 100 = complete control, preemergence; for Plant response rating, Corn / Corn plant response rating: visual rating; for Corn plant response rating: postemergence, scale 0 (no effect) to 100 (complete control)
Outline: as §1

large crabgrass = experiment: Test B pre-/postemergence herbicide test; format: in vivo, Digitaria sanguinalis; conditions: for Crabgrass, Large plant response rating (0 to 100 scale) / Plant response rating, Crabgrass, Large: 0 = no effect, 100 = complete control, preemergence; for Plant response rating, Crabgrass, Large / Crabgrass, Large plant response rating: visual rating; for Crabgrass, Large plant response rating: postemergence, scale 0 (no effect) to 100 (complete control)
Outline: as §1

giant foxtail = experiment: Test B pre-/postemergence herbicide test; format: in vivo, Setaria faberi; conditions: for Foxtail, Giant plant response rating (0 to 100 scale) / Plant response rating, Foxtail, Giant: 0 = no effect, 100 = complete control, preemergence; for Plant response rating, Foxtail, Giant / Foxtail, Giant plant response rating: visual rating; for Foxtail, Giant plant response rating: postemergence, scale 0 (no effect) to 100 (complete control)
Outline: as §1

lambsquarters = experiment: Test B pre-/postemergence herbicide test; format: in vivo, Chenopodium album; conditions: for Lambsquarters plant response rating (0 to 100 scale) / Plant response rating, Lambsquarters: 0 = no effect, 100 = complete control, preemergence; for Plant response rating, Lambsquarters / Lambsquarters plant response rating: visual rating; for Lambsquarters plant response rating: postemergence, scale 0 (no effect) to 100 (complete control)
Outline: as §1

morningglory = experiment: Test B pre-/postemergence herbicide test; format: in vivo, Ipomoea coccinea; conditions: for Plant response rating, Morningglory / Morningglory plant response rating: visual rating; for Morningglory plant response rating: postemergence, scale 0 (no effect) to 100 (complete control)
Outline: as §1

pigweed = experiment: Test B pre-/postemergence herbicide test; format: in vivo, Amaranthus retroflexus; conditions: for Pigweed plant response rating (0 to 100 scale) / Plant response rating, Pigweed: 0 = no effect, 100 = complete control, preemergence; for Plant response rating, Pigweed / Pigweed plant response rating: visual rating; for Pigweed plant response rating: postemergence, scale 0 (no effect) to 100 (complete control)
Outline: as §1

rice [2] = experiment: Test B pre-/postemergence herbicide test; format: in vivo, Oryza sativa; conditions: 0 = no effect, 100 = complete control, preemergence; for Rice plant response rating (0 to 100 scale): 125 g ai/ha; for Plant response rating, Rice: 500 g ai/ha, visual rating
Outline: as §1

velvetleaf = experiment: Test B pre-/postemergence herbicide test; format: in vivo, Abutilon theophrasti; conditions: for Velvetleaf plant response rating (0 to 100 scale) / Plant response rating, Velvetleaf: 0 = no effect, 100 = complete control, preemergence; for Plant response rating, Velvetleaf / Velvetleaf plant response rating: visual rating; for Velvetleaf plant response rating: postemergence, scale 0 (no effect) to 100 (complete control)
Outline: as §1

blackgrass = experiment: Test B postemergence herbicide test; format: in vivo, Alopecurus myosuroides; conditions: postemergence, visual rating, scale 0 (no effect) to 100 (complete control)
Outline: (§2)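 Paddy species grown to the 2-leaf stage under flooding; blackgrass sprayed postemergence at 2–18 cm (1- to 4-leaf stage). Plants kept in a greenhouse for 13 to 15 days, then visually rated against controls on 0 (no effect) to 100 (complete control).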

wheat = experiment: Test B postemergence herbicide test; format: in vivo, Triticum aestivum; parameters: key to Wheat plant response rating: 0 = no effect, 100 = complete control; conditions: postemergence, visual rating, scale 0 (no effect) to 100 (complete control)
Outline: (§3)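 Postemergence plants were sprayed with formulated test chemicals at 2 to 18 cm height (1- to 4-leaf stage); paddy species were grown to the 2-leaf stage. After 13 to 15 days in a greenhouse, injury was rated visually against untreated controls on a 0–100 scale (0 = no effect, 100 = complete control).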

wild oat = experiment: Test B postemergence herbicide test; format: in vivo, Avena fatua; conditions: postemergence, visual rating, scale 0 (no effect) to 100 (complete control)
Outline: as §3

rice [3] = experiment: Test B flooded paddy test; format: in vivo, Oryza sativa; conditions: 1000 g ai/ha, scale 0 to 100 (0 no effect, 100 complete control)
Outline: as §2

[4] = tested on: small flower umbrella sedge; experiment: Test B flooded paddy test; format: in vivo, Cyperus difformis; conditions: 1000 g ai/ha, scale 0 to 100 (0 no effect, 100 complete control)
Outline: as §2

ducksalad = experiment: Test B flooded paddy test; format: in vivo, Heteranthera limosa; conditions: 1000 g ai/ha, scale 0 to 100 (0 no effect, 100 complete control)
Outline: as §2

barnyardgrass [5] = experiment: Test B flooded paddy test; format: in vivo, Echinochloa crus-galli; conditions: 1000 g ai/ha, scale 0 to 100 (0 no effect, 100 complete control)
Outline: as §2

[6] = 500 g ai/ha, 0 = no effect, 100 = complete control, preemergence

CCc1nn(C(C)(C)C)cc1C(=O)Nc1cc(C(=O)N(C)CC)ccc1F [Compound 224]
Barnyardgrass plant response rating (0 to 100 scale) (barnyardgrass [1]; 125 g ai/ha): 30
Plant response rating, Barnyardgrass (barnyardgrass [1]; 500 g ai/ha): 90
Barnyardgrass plant response rating (barnyardgrass [1]; 125 g ai/ha): 10
Barnyardgrass plant response rating (barnyardgrass [1]; 500 g ai/ha): 30
Surinam Grass plant response rating (0 to 100 scale) (Surinam grass; 125 g ai/ha): 60
Plant response rating, Surinam Grass (Surinam grass; 500 g ai/ha): 100
Surinam Grass plant response rating (Surinam grass; 125 g ai/ha): 10
Surinam Grass plant response rating (Surinam grass; 500 g ai/ha): 20
Cocklebur plant response rating (0 to 100 scale) (cocklebur; 125 g ai/ha): 20
Plant response rating, Cocklebur (cocklebur; 500 g ai/ha): 50
Cocklebur plant response rating (cocklebur; 125 g ai/ha): 10
Cocklebur plant response rating (cocklebur; 500 g ai/ha): 40
Corn plant response rating (0 to 100 scale) (corn; 125 g ai/ha): 20
Plant response rating, Corn (corn; 500 g ai/ha): 70
Corn plant response rating (corn; 125 g ai/ha): 10
Corn plant response rating (corn; 500 g ai/ha): 20
Crabgrass, Large plant response rating (0 to 100 scale) (large crabgrass; 125 g ai/ha): 30
Plant response rating, Crabgrass, Large (large crabgrass; 500 g ai/ha): 100
Crabgrass, Large plant response rating (large crabgrass; 125 g ai/ha): 10
Crabgrass, Large plant response rating (large crabgrass; 500 g ai/ha): 20
Foxtail, Giant plant response rating (0 to 100 scale) (giant foxtail; 125 g ai/ha): 10
Plant response rating, Foxtail, Giant (giant foxtail; 500 g ai/ha): 70
Foxtail, Giant plant response rating (giant foxtail; 125 g ai/ha): 20
Foxtail, Giant plant response rating (giant foxtail; 500 g ai/ha): 30
Lambsquarters plant response rating (0 to 100 scale) (lambsquarters; 125 g ai/ha): 100
Plant response rating, Lambsquarters (lambsquarters; 500 g ai/ha): 100
Lambsquarters plant response rating (lambsquarters; 125 g ai/ha): 60
Lambsquarters plant response rating (lambsquarters; 500 g ai/ha): 70
Plant response rating, Morningglory (morningglory; [6]): 30
Morningglory plant response rating (morningglory; 125 g ai/ha): 30
Morningglory plant response rating (morningglory; 500 g ai/ha): 70
Pigweed plant response rating (0 to 100 scale) (pigweed; 125 g ai/ha): 80
Plant response rating, Pigweed (pigweed; 500 g ai/ha): 100
Pigweed plant response rating (pigweed; 125 g ai/ha): 40
Pigweed plant response rating (pigweed; 500 g ai/ha): 60
Rice plant response rating (0 to 100 scale) (rice [2]): 30
Plant response rating, Rice (rice [2]): 80
Velvetleaf plant response rating (0 to 100 scale) (velvetleaf; 125 g ai/ha): 70
Plant response rating, Velvetleaf (velvetleaf; 500 g ai/ha): 100
Velvetleaf plant response rating (velvetleaf; 125 g ai/ha): 20
Velvetleaf plant response rating (velvetleaf; 500 g ai/ha): 60
Blackgrass plant response rating (blackgrass; 125 g ai/ha): 0
Blackgrass plant response rating (blackgrass; 500 g ai/ha): 10
Wheat plant response rating (wheat; 125 g ai/ha): 0
Wheat plant response rating (wheat; 500 g ai/ha): 30
Oat, Wild plant response rating (wild oat; 125 g ai/ha): 0
Oat, Wild plant response rating (wild oat; 500 g ai/ha): 30
Rice plant response rating (rice [3]; visual rating, 13 to 15 days): 90
Sedge, Umbrella plant response rating ([4]; visual rating, 13 to 15 days): 80
Ducksalad plant response rating (ducksalad; visual rating, 13 to 15 days): 80
Barnyardgrass plant response rating (barnyardgrass [5]; visual rating, 13 to 15 days): 90

CCNC(=O)c1ccnc(NC(=O)c2nn(C(C)(C)C)cc2CC)c1 [Compound 233]
Barnyardgrass plant response rating (0 to 100 scale) (barnyardgrass [1]; 125 g ai/ha): 10
Plant response rating, Barnyardgrass (barnyardgrass [1]; 500 g ai/ha): 10
Surinam Grass plant response rating (0 to 100 scale) (Surinam grass; 125 g ai/ha): 0
Plant response rating, Surinam Grass (Surinam grass; 500 g ai/ha): 20
Surinam Grass plant response rating (Surinam grass; 125 g ai/ha): 10
Surinam Grass plant response rating (Surinam grass; 500 g ai/ha): 20
Cocklebur plant response rating (0 to 100 scale) (cocklebur; 125 g ai/ha): 0
Plant response rating, Cocklebur (cocklebur; 500 g ai/ha): 0
Cocklebur plant response rating (cocklebur; 125 g ai/ha): 20
Cocklebur plant response rating (cocklebur; 500 g ai/ha): 20
Corn plant response rating (0 to 100 scale) (corn; 125 g ai/ha): 0
Plant response rating, Corn (corn; 500 g ai/ha): 0
Corn plant response rating (corn; 125 g ai/ha): 10
Corn plant response rating (corn; 500 g ai/ha): 30
Crabgrass, Large plant response rating (0 to 100 scale) (large crabgrass; 125 g ai/ha): 20
Plant response rating, Crabgrass, Large (large crabgrass; 500 g ai/ha): 90
Crabgrass, Large plant response rating (large crabgrass; 125 g ai/ha): 10
Crabgrass, Large plant response rating (large crabgrass; 500 g ai/ha): 10
Foxtail, Giant plant response rating (0 to 100 scale) (giant foxtail; 125 g ai/ha): 0
Plant response rating, Foxtail, Giant (giant foxtail; 500 g ai/ha): 0
Foxtail, Giant plant response rating (giant foxtail; 125 g ai/ha): 0
Foxtail, Giant plant response rating (giant foxtail; 500 g ai/ha): 30
Lambsquarters plant response rating (0 to 100 scale) (lambsquarters; 125 g ai/ha): 0
Plant response rating, Lambsquarters (lambsquarters; 500 g ai/ha): 30
Lambsquarters plant response rating (lambsquarters; 125 g ai/ha): 50
Lambsquarters plant response rating (lambsquarters; 500 g ai/ha): 70
Morningglory plant response rating (0 to 100 scale) (morningglory; 125 g ai/ha, 0 = no effect, 100 = complete control, preemergence): 0
Plant response rating, Morningglory (morningglory; [6]): 0
Morningglory plant response rating (morningglory; 125 g ai/ha): 50
Morningglory plant response rating (morningglory; 500 g ai/ha): 80
Pigweed plant response rating (0 to 100 scale) (pigweed; 125 g ai/ha): 0
Plant response rating, Pigweed (pigweed; 500 g ai/ha): 60
Pigweed plant response rating (pigweed; 125 g ai/ha): 60
Pigweed plant response rating (pigweed; 500 g ai/ha): 70
Rice plant response rating (0 to 100 scale) (rice [2]): 0
Plant response rating, Rice (rice [2]): 0
Velvetleaf plant response rating (0 to 100 scale) (velvetleaf; 125 g ai/ha): 10
Plant response rating, Velvetleaf (velvetleaf; 500 g ai/ha): 10
Velvetleaf plant response rating (velvetleaf; 125 g ai/ha): 30
Velvetleaf plant response rating (velvetleaf; 500 g ai/ha): 50
Blackgrass plant response rating (blackgrass; 125 g ai/ha): 0
Blackgrass plant response rating (blackgrass; 500 g ai/ha): 10
Wheat plant response rating (wheat; 125 g ai/ha): 0
Wheat plant response rating (wheat; 500 g ai/ha): 10
Oat, Wild plant response rating (wild oat; 125 g ai/ha): 0
Oat, Wild plant response rating (wild oat; 500 g ai/ha): 20
Rice plant response rating (rice [3]): 30
Sedge, Umbrella plant response rating [4]: 80
Ducksalad plant response rating (ducksalad): 50
Barnyardgrass plant response rating (barnyardgrass [5]): 0
